Data from patent US6638531B1, “Antimicrobial peptides” (priority 1998, dated 2003).
Values after ≈ are worked out from the molar mass of the structure shown. Marks after values point to notes of the source that are not given here. Where no end group is shown, it is not given here.

Legend:
[1] = test system: Streptococcus mutans (R9); assay: Antibacterial activity against monocultures in vitro (viability counts); type: cell-based; conditions: 0.5 h, 100 μg/ml
Protocol: (§1) Monocultures of the bacteria Streptococcus mutans (R9), Strentococcus sanguis (SB 179), Streptococcus salivarius (SS 196), Actinomyces naeslundii (WVU 627), Fusobacterium nucleatum (ATCC 10953), Prevotella intermedia ([…]) and Veillonella parvula (ATCC 17745) were cultured to a late log phase in BHI (Difco), washed three times in 10 mM potassium phosphate buffer (PPB) and diluted to a suspension of 10^6 CFU/ml. […] The control treatment was performed in 10 mM without peptide.

[2] = test system: Strentococcus sanguis (SB 179); assay: as above; type: cell-based; conditions: Streptococcus sanguis, 0.5 h, 100 μg/ml
Protocol: as §1

[3] = test system: Fusobacterium nucleatum (ATCC 10953); assay: as above; type: cell-based; conditions: 0.5 h, 100 μg/ml
Protocol: as §1

[4] = test system: Veillonella parvula (ATCC 17745); assay: as above; type: cell-based; conditions: 0.5 h, 100 μg/ml
Protocol: as §1

[5] = test system: Prevotella intermedia (T588); assay: as above; type: cell-based; conditions: 0.5 h, 100 μg/ml
Protocol: as §1

[6] = test system: Actinomyces naeslundii (WVU 627); assay: as above; type: cell-based; conditions: 0.5 h, 100 μg/ml
Protocol: as §1

[7] = test system: Streptococcus salivarius (SS 196); assay: as above; type: cell-based; conditions: 0.5 h, 100 μg/ml
Protocol: as §1

Candida albicans 10231 = assay: microbe, parasite or virus in culture; conditions: for IC50 values (50% of the inoculum is killed): 10231, pH 7
Protocol: (§2) 5*10^6 cells of Candida pseudotropicalis, Candida albicans 10231, Cryptococcus neoformans, Candida krusei, Candida parapsilosis, Candida glabrata and Candida albicans 32354 and an ergosterol-deficient mutant thereof were incubated for one and a half hours at 37° C. in the presence of a dilution series of a peptide according to the invention or amphotericin B in 1 mM potassium phosphate buffer, pH 7.0. The viability was determined by plating out. Used as positive control was synthetic PGLa (“Protein beginning with Glycine and ending with Leucin-amide”, with the amino acid sequence […]-amide).

Candida parapsilosis = assay: microbe, parasite or virus in culture; conditions: for IC50 values (50% of the inoculum is killed): pH 7
Protocol: as §2

Candida glabrata = assay: microbe, parasite or virus in culture; conditions: for IC50 values (50% of the inoculum is killed): pH 7
Protocol: as §2

Candida pseudotropicalis = assay: microbe, parasite or virus in culture; conditions: for IC50 values (50% of the inoculum is killed): pH 7
Protocol: as §2

Candida krusei = assay: microbe, parasite or virus in culture; conditions: for IC50 values (50% of the inoculum is killed): pH 7
Protocol: as §2

Cryptococcus neoformans = assay: microbe, parasite or virus in culture; conditions: for IC50 values (50% of the inoculum is killed): pH 7
Protocol: as §2

Candida albicans 32354 = assay: microbe, parasite or virus in culture
Protocol: as §2

[8] = test system: bacteria from cultured plaque; assay: Antimicrobial activity on oral bacteria; type: cell-based; conditions: 0.5 h, 100 μg/ml
Text: (§3) In order to determine whether the peptides according to the invention are also active against bacteria such as are encountered in the mouth, bacteria were collected from saliva and plaque. Saliva was shaken on a vortex mixer and centrifuged.

[9] = test system: bacteria collected from plaque; assay: Antimicrobial activity on oral bacteria; type: cell-based; conditions: 0.5 h, 100 μg/ml
Text: as §3

[10] = test system: bacteria collected from saliva; assay: Antimicrobial activity on oral bacteria; type: cell-based; conditions: 0.5 h, 100 μg/ml
Text: as §3

[11] = test system: bacteria from disrupted plaque; assay: Antimicrobial activity on oral bacteria; type: cell-based; conditions: 0.5 h, 100 μg/ml
Text: as §3

[12] = test system: Candida albicans 32354, ergosterol-deficient mutant; assay: Killing of yeasts; type: cell-based; conditions: pH 7, read-out: IC50 values (50% of the inoculum is killed)
Protocol: as §2

[13] = test system: meticillin-resistant Staphylococcus aureus (MRSA); assay: Growth inhibition on agar with spotted peptide; type: cell-based; design: key: “+” designates full growth inhibition; “+/−” designates partial inhibition; “−” signifies no inhibition; conditions: 10 μg peptide spotted
Protocol: (§4) The growth of the yeast Candida albicans, Torulopsis glabrata and meticillin-resistant Staphylococcus aureus (MRSA) was tested by growing them on agar on which 10 μg of each of the peptides according to the invention was spotted. […] “+” designates full growth inhibition, “+/−” designates partial inhibition and “−” signifies no inhibition.

Candida albicans = assay: Growth inhibition on agar with spotted peptide; type: cell-based; design: key: “+” designates full growth inhibition; “+/−” designates partial inhibition; “−” signifies no inhibition; conditions: C. albicans on agar, 10 μg peptide spotted
Protocol: as §4

Torulopsis glabrata = assay: Growth inhibition on agar with spotted peptide; type: cell-based; design: key: “+” designates full growth inhibition; “+/−” designates partial inhibition; “−” signifies no inhibition; conditions: T. glabrata on agar, 10 μg peptide spotted
Protocol: as §4

Streptococcus sanguis = assay: Inhibition of lactic acid production; type: cell-based; conditions: S. sanguis; 1 hour in 10 mM PPB with glucose
Protocol: (§5) All peptides according to the invention were tested for their capacity to inhibit the lactic acid production of the bacteria Streptococcus sanguis, Streptococcus mutans, Streptococcus salivarius and Lactobacillus rhamnosus. The formation of lactic acid is a measure for the metabolic activity. For this purpose cultures of bacteria cells were incubated for 1 hour in 10 mM PPB with 0.5 glucose and different concentrations of the peptides. The formation of lactic acid was monitored by means of spectrophotometry.

Streptococcus mutans = assay: Inhibition of lactic acid production; type: cell-based; conditions: S. mutans; 1 hour in 10 mM PPB with glucose
Protocol: as §5

Lactobacillus rhamnosus = assay: Inhibition of lactic acid production; type: cell-based; conditions: L. rhamnosus; 1 hour in 10 mM PPB with glucose
Protocol: as §5

Streptococcus salivarius = assay: Inhibition of lactic acid production; type: cell-based; conditions: S. salivarius; 1 hour in 10 mM PPB with glucose
Protocol: as §5

[14] = test system: Yersinia enterocolitica (PYv+); assay: Killing of Yersinia by peptide 10 (CFU over time); type: cell-based; conditions: 50 μg/ml, CFU at 0, 1, 2 and 3 hours (FIG. 3B)
Protocol: (§6) Peptide 10 was added in a concentration of 50 μg/ml to a culture with 10^4 Salmonella typhimurium bacteria. For control purposes a culture to which nothing was added was included as blank. The number of CFU was determined at the points in time 0, 1, 2 and 3 hours. The same was done with Yersinia enterocolitica (PYv+). […] Particular peptides are also found to have a killing effect on micro-organisms which are resistant to antimicrobial agents used at present.

Salmonella typhimurium = assay: Killing of Salmonella by peptide 10 (CFU over time); type: cell-based; conditions: 50 μg/ml, culture with 10^4 Salmonella typhimurium, CFU at 0, 1, 2 and 3 hours (FIG. 3A)
Protocol: as §6

Compound	% reduction in viability counts [1]	% reduction in viability counts [2]	% reduction in viability counts [3]	% reduction in viability counts [4]	% reduction in viability counts [5]	% reduction in viability counts [6]	% reduction in viability counts [7]	IC50 values (50% of the inoculum is killed) (Candida albicans 10231) [µg/mL]	IC50 values (50% of the inoculum is killed) (Candida parapsilosis) [µg/mL]	IC50 values (50% of the inoculum is killed) (Candida glabrata) [µg/mL]	IC50 values (50% of the inoculum is killed) (Candida pseudotropicalis) [µg/mL]	IC50 values (50% of the inoculum is killed) (Candida krusei) [µg/mL]	IC50 values (50% of the inoculum is killed) (Cryptococcus neoformans) [µg/mL]	growth inhibition [13]	growth inhibition (Candida albicans)	growth inhibition (Torulopsis glabrata)	inhibition of lactic acid production (Streptococcus sanguis)	inhibition of lactic acid production (Streptococcus mutans)	inhibition of lactic acid production (Lactobacillus rhamnosus)	inhibition of lactic acid production (Streptococcus salivarius)	also measured
GHMASKGAIAGKIAKVALKAL-NH2 [positive control peptide]	>99.9%	>99.9* %	>99.9* %	>99.9* %	98.0%	>99.9* %	>99.9* %	1	1	9	1	1	0.5								IC50 values (50% of the inoculum is killed) (Candida albicans 32354; 32354, pH 7): 1 µg/mL; % reduction in viability counts, total Gram-negative average [8]: 83.7%; % reduction in viability counts, total aerobic average [8]: 20.6%; % reduction in viability counts, total anaerobic average [8]: 87.2%; % reduction in viability counts, total Gram-negative average [9]: 84.0%; % reduction in viability counts, total aerobic average [9]: 58.5%; % reduction in viability counts, total anaerobic average [9]: 51.5%; % reduction in viability counts, total Gram-negative average [10]: 97.7%; % reduction in viability counts, total aerobic average [10]: 60.1%; % reduction in viability counts, total anaerobic average [10]: 73.2%; % reduction in viability counts, total Gram-negative average [11]: 45.9%; % reduction in viability counts, total aerobic average [11]: 41.7%; % reduction in viability counts, total anaerobic average [11]: 68.5%
C[C@@H]1[C@H](O)[C@@H](C)/C=C/C=C/C=C/C=C/C=C/C=C/C=C/[C@H](O[C@@H]2O[C@H](C)[C@@H](O)[C@H](N)[C@@H]2O)C[C@@H]2O[C@](O)(C[C@@H](O)C[C@@H](O)[C@H](O)CC[C@@H](O)C[C@@H](O)CC(=O)O[C@H]1C)C[C@H](O)[C@H]2C(=O)O [amphotericin B]																					IC50 (Candida albicans 10231; Candida albicans, 10231, pH 7, read-out: IC50 values (50% of the inoculum is killed)): 1 µg/mL (≈ 1.08 µM); IC50 (Candida parapsilosis; Lodderomyces parapsilosis, pH 7, read-out: IC50 values (50% of the inoculum is killed)): 6 µg/mL (≈ 6.49 µM); IC50 (Candida glabrata; Nakaseomyces glabratus, pH 7, read-out: IC50 values (50% of the inoculum is killed)): 2 µg/mL (≈ 2.16 µM); IC50 (Candida pseudotropicalis; Kluyveromyces marxianus, pH 7, read-out: IC50 values (50% of the inoculum is killed)): 8 µg/mL (≈ 8.66 µM); IC50 (Candida krusei; Pichia kudriavzevii, pH 7, read-out: IC50 values (50% of the inoculum is killed)): > 70 µg/mL; IC50 (Cryptococcus neoformans; Cryptococcus neoformans, pH 7, read-out: IC50 values (50% of the inoculum is killed)): 1 µg/mL (≈ 1.08 µM); IC50 (Candida albicans 32354; Candida albicans, 32354, pH 7, read-out: IC50 values (50% of the inoculum is killed)): 2 µg/mL (≈ 2.16 µM); IC50 [12]: > 70 µg/mL
C[C@H](NC(=O)[C@H](Cc1cnc[nH]1)NC(=O)[C@H](CO)NC(=O)[C@@H](N)CC(=O)O)C(=O)N[C@@H](CCCCN)C(=O)N[C@@H](CCCNC(=N)N)C(=O)N[C@@H](Cc1cnc[nH]1)C(=O)N[C@@H](Cc1cnc[nH]1)C(=O)NCC(=O)N[C@@H](Cc1ccc(O)cc1)C(=O)N[C@@H](CCCCN)C(=O)N[C@@H](CCCNC(=N)N)C(=O)N[C@@H](CCCCN)C(=O)N[C@@H](Cc1ccccc1)C(=O)N[C@@H](Cc1cnc[nH]1)C(=O)N[C@@H](CCC(=O)O)C(=O)N[C@@H](CCCCN)C(=O)N[C@@H](Cc1cnc[nH]1)C(=O)N[C@@H](Cc1cnc[nH]1)C(=O)N[C@@H](CO)C(=O)N[C@@H](Cc1cnc[nH]1)C(=O)N[C@@H](CCCNC(=N)N)C(=O)NCC(=O)N[C@@H](Cc1ccc(O)cc1)C(=O)O [histatin 5, reference compound]	−49.5%	69.5%	49.3%	26.9%		−11.6%	38.3%							−	−	−	− (“−” signifies no inhibition of lactic acid formation at >100 μg/ml peptide)	− (“−” signifies no inhibition of lactic acid formation at >100 μg/ml peptide)	− (“−” signifies no inhibition of lactic acid formation at >100 μg/ml peptide)	− (“−” signifies no inhibition of lactic acid formation at >100 μg/ml peptide)	
SSSKEENRIIPGGI [negative control, SSSKEENRIIPGGI]								>67	>67	>67	>67	>67	>67								
KRLFKELKFSLRKY-OH [peptide 3, KRLFKELKFSLRKY]	>99.9* %	99.6 (0.30)* %	92.9 (3.00)* %	>99.9* %	−57.8 (77.9) %	>99.9* %	>99.9* %							+/−	+	+	+ (“+” designates full inhibition at 4-20 μg/ml peptide)	+ (“+” designates full inhibition at 4-20 μg/ml peptide)	+ (“+” designates full inhibition at 4-20 μg/ml peptide)	+ (“+” designates full inhibition at 4-20 μg/ml peptide)	
KRLFKKLLFSLRKY [peptide 10, KRLFKKLLFSLRKY]														+	+	+	+ (“+” designates full inhibition at 4-20 μg/ml peptide)	+ (“+” designates full inhibition at 4-20 μg/ml peptide)	+ (“+” designates full inhibition at 4-20 μg/ml peptide)	+ (“+” designates full inhibition at 4-20 μg/ml peptide)	number of bacteria (CFU) after adding peptide [14]: below the detection limit; number of bacteria (CFU) after adding peptide (Salmonella typhimurium): below the detection limit
